Laboratory results reported in patent publication US20260176283A1, “IONIZABLE LIPIDS WITH LINEAR HEAD GROUPS” (Beam Therapeutics Inc., priority 2023, published 2026).
“And” between values parts separate entries of the source, which are not always exact repeats. Identical values can stand only once.

Tests used:
[1] = LNP characterization of base editor LNP preparations (DLS diameter, PDI, encapsulation efficiency); format: physicochemical
Protocol: (§1) Lipid nanoparticle components are dissolved in 100% ethanol at specified lipid component molar ratios. mRNA encoding an adenine base editor and a chemically-modified sgRNA is dissolved at a mass ratio of 1:1 in 10 mM citrate, 100 mM NaCl, pH 4.0, resulting in a concentration of NA cargo of approximately 0.22 mg/mL. LNP preparations are formulated with molar ratios of either 50% Ionizable Lipid: 38.5% Cholesterol: 1.5% PEG2000-DMG: 10% DSPC or 47.5% Ionizable Lipid: 40% Cholesterol: 2.5% PEG2000-DMG: 10% DSPC both at a total lipid to NA molar ratio of 6.
(§2) LNP preparations are formed by microfluidic mixing of the lipid and NA solutions using a Precision Nanosystems NanoAssemblr Ignite Instrument, according to the manufacturer's protocol. A 3:1 ratio of aqueous to organic solvent is maintained during mixing using differential flow rates. After mixing, LNP preparations are collected, diluted in PBS (approximately 2:1 v/v), and further buffer exchange is conducted using dialysis in PBS at 4° C. for 8 to 24 hours against a 20 kDa filter. After this initial dialysis, each individual LNP preparation is characterized via dynamic light scattering (DLS) to measure size and polydispersity. pKa of a subpopulation of LNP preparations is measured via TNS assay. After dialysis, LNP preparations are sterile filtered using 0.22 micron sterile filter and stored at 4° C. for further use. In some embodiments, LNP preparations may be concentrated using 100 kDa Amicon filters per manufacturer's protocol.
DLS—LNP preparation hydrodynamic diameter and polydispersity index (PDI) is measured using high throughput dynamic light scattering (DLS) (DynaPro plate reader II, Wyatt). LNP preparations are diluted 1×PBS to an appropriate concentration and analyzed.
Concentration of NA is determined by Qubit microRNA kit (for siRNA) or HS RNA kit (for mRNA) per manufacturer's instructions. Encapsulation efficiency is determined by measuring unlysed and lysed LNPs.

ALAS1 target site = experiment: In vivo base editing with ABE mRNA and sgRNA targeting ALAS1; set-up: species or system Balb/c mice; details: for Liver Editing A->G (%): formulation ratio 50:38.5:1.5:10, liver, 4 days after dosing; for Quadrecept Editing A->G (%): formulation ratio 50:38.5:1.5:10, quadricep muscle
Protocol: as §1, §2
Male Balb/C mice aged approximately 8-12 weeks are used in the experiments described herein. Each mouse is temporarily restrained, and LNP preparations are administered IV via tail vein injection. Age-matched mice are also used to administer vehicle (1×PBS) via tail vein injection as a control. Four to six days post-dose, tissues including liver, spleen, heart and muscle are collected (only liver and muscle (quardracept) are reported). Genomic DNA is isolated and fragmented and adapter-ligated using the Nextera DNA Flex Library Prep Kit (Illumina) using the 96-well plate Nextera indexing primers (Illumina), according to the manufacturer's instructions. Library size and concentration is confirmed by Fragment Analyzer (Agilent) and sent to Novogene for whole genome sequencing using an Illumina HiSeq.
For base editing, mRNA encoding an adenine base editor (ABE) and a guide RNA (sgRNA) targeting ALAS1 at 1:1 (mass ratio) are coencapsulated in LNP preparations as described herein. LNP preparations are administrated into Balb/c mice through tail vein injections at concentrations ranging from 0.05 to 3.0 mg/kg total RNA. At 4 days after dosing, mice are euthanized and liver, spleen and bone barrow are harvested. Base editing is determined by performing targeted deep sequencing analysis at the ALAS1 target site using extracted genomic DNA.

[2] = LNP preparation characterization (encapsulation efficiency, DLS size and polydispersity), barcoded screen LNPs; format: physicochemical; details: LNP 47.5% ionizable lipid: 40% cholesterol: 2.5% PEG-2000 DMG: 10% DPSC, N/P 4.5-6; for AVG PDI / AVG Z Dia (nm): DLS
Protocol: Lipid nanoparticle components were dissolved in 100% ethanol at specified lipid component molar ratios. Nucleic acid (NA) cargo was dissolved in 10 mM citrate, 100 mM NaCl, pH 4.0, resulting in a concentration of NA cargo of approximately 0.22 mg/mL. In some embodiments, NA cargos included both a functional NA and a reporter barcode mixed at mass ratios of 1:10 to 10:1 functional NA to barcode. As described herein, a NA can be a siRNA, an anti-sense, an expressing DNA, or mRNA.
LNP preparations were prepared with 47.5% Ionizable Lipid (e.g., a compound provided herein): 40% cholesterol: 2.5% PEG-2000 DMG: 10% DPSC and an N/P ratio range of 4.5-6. LNP preparations were formed by microfluidic mixing of the lipid and NA solutions using Precision Nanosystems NanoAssemblr Spark or Benchtop series Instruments, according to the manufacturer's protocol.
A ratio of aqueous to organic solvent of approximately 2:1 or 3:1 was maintained during mixing using differential flow rates. After mixing, LNP preparations were collected, diluted in phosphate buffer saline (PBS) or Tris-buffered saline (TBS) (approximately 1:1 v/v). Further buffer exchange was conducted using dialysis in PBS or TBS at 4° C. for 4 to 24 hours against a 20 kDa filter. After this initial dialysis, each individual LNP preparation may be characterized via dynamic light scattering (DLS) to measure the size (e.g., diameter) and polydispersity. LNP preparations falling within specific diameter and polydispersity ranges were pooled, and further dialyzed against PBS or TBS at 4° C. for 1 to 4 hours against a 100 kDa dialysis cassette. After the second dialysis, LNP preparations were sterile filtered using 0.22 μm filter and stored at 4° C. for further use.

[3] = Table D LNPs, formulation ratio 50:38.5:1.5:10, ABE mRNA/ALAS1 sgRNA
[4] = Table C LNPs, formulation ratio 47.5:40:2.5:10, ABE mRNA/ALAS1 sgRNA

Diameter (nm) [1, 3] | EE (%) [1, 3] | PDI (%) [1, 3] | AVG EE(%) [2] | AVG PDI [2] | AVG Z Dia (nm) [2] | Diameter (nm) [1, 4] | EE (%) [1, 4] | PDI (%) [1, 4] | Compound | Liver Editing A->G (%) (ALAS1 target site; dose 3 MPK IV) | Quadrecept Editing A->G (%) (ALAS1 target site; dose 3 MPK IV) | further results
72.1 nm | 99.03% | 11% |  |  |  |  |  |  | C=CCCCCCCC(CCCCCCC=C)OC(=O)CCCCCC(=O)OCC(COC(=O)CCCCCC(=O)OC(CCCCCCC=C)CCCCCCC=C)COC(=O)CCCN1CCCC1 [Compound (4), 1-Heptadeca-1,16-dien-9-yl-7-[2-({[7-(heptadeca-1,16-dien-9-yloxy)-7-oxoheptanoyl]oxy}methyl)-3-{[4-(pyrrolidin-1-yl)butanoyl]oxy}propyl] heptanedioate] | 64.7% | 4.16% | 
71.6 nm | 98.66% | 11% |  |  |  |  |  |  | C=CCCCCCC(CCCCCC=C)OC(=O)CCCCCCC(=O)OCC(COC(=O)CCCCCCC(=O)OC(CCCCCC=C)CCCCCC=C)COC(=O)CCCN1CCCC1 [Compound (10), 1-[2-({[8-Oxo-8-(pentadeca-1,14-dien-8-yloxy)octanoyl]oxy}methyl)-3-{[4-(pyrrolidin-1-yl)butanoyl]oxy}propyl] 8-pentadeca-1,14-dien-8-yl octanedioate] | 75.62% | 3.6% | 
83.2 nm | 74.33% | 18.7% |  |  |  |  |  |  | C=CCCCCCC(CCCCCC=C)OC(=O)CCCCC(=O)OCC(COC(=O)CCCCC(=O)OC(CCCCCC=C)CCCCCC=C)COC(=O)CCCN1CCCC1 [Compound (11), 1-[2-({[6-Oxo-6-(pentadeca-1,14-dien-8-yloxy)hexanoyl]oxy}methyl)-3-{[4-(pyrrolidin-1-yl)butanoyl]oxy}propyl]6-pentadeca-1,14-dien-8-yl hexanedioate] | 17.19% | 0.11% | 
79.7 nm | 96.75% | 27.9% |  |  |  |  |  |  | CC/C=C\CCCC(CCC/C=C\CC)OC(=O)CCCCCCC(=O)OCC(COC(=O)CCCCCCC(=O)OC(CCC/C=C\CC)CCC/C=C\CC)COC(=O)CCCN1CCCC1 [Compound (13), 1-{2-[({8-Oxo-8-[(3Z,12Z)-pentadeca-3,12-dien-8-yloxy]octanoyl}oxy)methyl]-3-{[4-(pyrrolidin-1-yl)butanoyl]oxy}propyl} 8-(3Z,12Z)-pentadeca-3,12-dien-8-yl octanedioate] |  | 0.37% | 
 |  |  | 98.2% | 0.08 | 130.75 nm | 123 nm | 57.3% | 9.9% | C=CCCCC(CCCC=C)COC(=O)CCCCC(=O)OCC(COC(=O)CCCCC(=O)OCC(CCCC=C)CCCC=C)COC(=O)CCCN1CCCC1 [Compound (19), 1-(2-{[(6-Oxo-6-{[2-(pent-4-en-1-yl)hept-6-en-1-yl]oxy}hexanoyl)oxy]methyl}-3-{[4-(pyrrolidin-1-yl)butanoyl]oxy}propyl) 6-[2-(pent-4-en-1-yl)hept-6-en-1-yl] hexanedioate] |  |  | 
 |  |  |  |  |  | 153.73 nm | 25% | 8.2% | O=C(CCCCC(=O)OC(CCCCCC(F)(F)F)CCCCCC(F)(F)F)OCC(COC(=O)CCCCC(=O)OC(CCCCCC(F)(F)F)CCCCCC(F)(F)F)COC(=O)CCCN1CCCC1 [Compound (20), 1-(1,1,1,13,13,13-Hexafluorotridecan-7-yl)6-{2-[({6-[(1,1,1,13,13,13-hexafluorotridecan-7-yl)oxy]-6-oxohexanoyl}oxy)methyl]-3-{[4-(pyrrolidin-1-yl)butanoyl]oxy}propyl} hexanedioate] |  |  | 
 |  |  | 88.1% | 0.07 | 90.80 nm | 90.8 nm | 88.09% | 6.8% | C=CCCCCCC(CCCCCC=C)OC(=O)CCCCCC(=O)OCCCC(CCCOC(=O)CCCCCC(=O)OC(CCCCCC=C)CCCCCC=C)OC(=O)CCCN1CCCC1 [Compound (22), O1-[7-[7-(1-hept-6-enyloct-7-enoxy)-7-oxo-heptanoyl]oxy-4-(4-pyrrolidin-1-ylbutanoyloxy)heptyl] O7-(1-hept-6-enyloct-7-enyl) heptanedioate] |  |  | 
 |  |  | 90.2% | 0.13 | 117.63 nm |  |  |  | CC/C=C\CCCC(CCC/C=C\CC)COC(=O)CCCCC(=O)OCC(COC(=O)CCCCC(=O)OCC(CCC/C=C\CC)CCC/C=C\CC)COC(=O)CCCN1CCCC1 [Compound (24), 1-(6Z)-2-[(4Z)-Hept-4-en-1-yl]non-6-en-1-yl6-(2-{[(6-{[(6Z)-2-[(4Z)-hept-4-en-1-yl]non-6-en-1-yl]oxy}-6-oxohexanoyl)oxy]methyl}-3-{[4-(pyrrolidin-1-yl)butanoyl]oxy}propyl) hexanedioate] |  |  | 

Compound | Diameter (nm) [1, 3] | EE (%) [1, 3] | PDI (%) [1, 3] | AVG EE(%) [2] | AVG PDI [2] | AVG Z Dia (nm) [2] | Diameter (nm) [1, 4] | EE (%) [1, 4] | PDI (%) [1, 4] | Liver Editing A->G (%) (ALAS1 target site; dose 3 MPK IV) | Quadrecept Editing A->G (%) (ALAS1 target site; dose 3 MPK IV) | further results
C=CCCCCCC(CCCCCC=C)OC(=O)CCCCCC(=O)OCC(COC(=O)CCCCCC(=O)OC(CCCCCC=C)CCCCCC=C)COC(=O)CCCN1CCCC1 [Compound (9), 1-[2-({[7-Oxo-7-(pentadeca-1,14-dien-8-yloxy)heptanoyl]oxy}methyl)-3-{[4-(pyrrolidin-1-yl)butanoyl]oxy}propyl] 7-pentadeca-1,14-dien-8-yl heptanedioate] | 74.1 nm and 75.6 nm and 89.9 nm and 85.5 nm | 98.77% and 98.4% and 98.5% and 98.1% | 12.2% and 9.7% and 8.1% and 9.8% |  |  |  |  |  |  |  |  | Liver Editing A->G (%) (ALAS1 target site; dose 1.5 MPK IV): 90.8%; Quadrecept Editing A->G (%) (ALAS1 target site; dose 1.5 MPK IV): 8.22%
CC/C=C\CCCC(CCC/C=C\CC)OC(=O)CCCCCC(=O)OCC(COC(=O)CCCCCC(=O)OC(CCC/C=C\CC)CCC/C=C\CC)COC(=O)CCCN1CCCC1 [Compound (14), 1-{2-[({7-Oxo-7-[(3Z,12Z)-pentadeca-3,12-dien-8-yloxy]heptanoyl}oxy)methyl]-3-{[4-(pyrrolidin-1-yl)butanoyl]oxy}propyl} 7-(3Z,12Z)-pentadeca-3,12-dien-8-yl heptanedioate] | 74.2 nm and 87.2 nm and 88.8 nm and 111.4 nm and 90.2 nm and 83.6 nm | 98.94% and 98.27% and 98.68% and 98.67% and 97.86% and 97.95% | 11.6% and 9.6% and 11.5% and 8% and 11.4% and 10.2% |  |  |  |  |  |  |  |  | 
